These results are taken from ChEMBL document CHEMBL2150845, “BACE Inhibitors: Potential Treatment of Alzheimer's Disease, Dementia, and Related Neurodegenerative Disorders (A): 5,6-Dihydroimidazo[1,2-a]pyrazin-8-yl-amine Derivatives: Patent Highlight” (ACS Med Chem Lett, 2012).

Structures are written as SMILES. Some results are limits rather than exact numbers.

As a reminder, the IC50 is the point on the concentration scale where inhibition reaches its midpoint. Read a high IC50 as weaker potency in that assay.

In the assay the target is Beta-secretase 1 (Homo sapiens, UniProt P56817). In words: Inhibition of BACE1 by FRET assay.
Beta-secretase 1, sequence (P56817 whole entry): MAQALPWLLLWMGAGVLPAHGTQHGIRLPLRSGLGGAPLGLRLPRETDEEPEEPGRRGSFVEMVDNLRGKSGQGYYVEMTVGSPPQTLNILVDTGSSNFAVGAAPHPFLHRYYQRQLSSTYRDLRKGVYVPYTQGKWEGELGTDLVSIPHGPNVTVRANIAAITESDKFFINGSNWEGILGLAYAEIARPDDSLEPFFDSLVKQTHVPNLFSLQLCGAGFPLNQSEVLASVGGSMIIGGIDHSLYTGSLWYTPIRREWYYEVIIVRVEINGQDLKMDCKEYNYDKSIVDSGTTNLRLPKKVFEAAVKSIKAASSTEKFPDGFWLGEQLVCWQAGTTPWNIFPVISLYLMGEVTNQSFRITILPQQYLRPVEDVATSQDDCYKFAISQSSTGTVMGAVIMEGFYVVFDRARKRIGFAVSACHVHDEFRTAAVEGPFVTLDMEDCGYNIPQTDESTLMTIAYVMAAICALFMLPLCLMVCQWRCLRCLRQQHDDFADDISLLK
`C[C@@]1(c2cc(NC(=O)c3ccc(C#N)cn3)ccc2F)Cn2c(C#N)cnc2C(N)=N1` showed a 50% inhibitory concentration (IC50) of 38.9 nM. Under `C[C@@]1(c2cc(NC(=O)c3ccn(C(F)F)n3)ccc2F)Cn2c(C#N)cnc2C(N)=N1` stands 44.7 nM; under `C[C@@]1(c2cc(NC(=O)c3ccn(C(F)F)n3)ccc2F)Cn2cc(C(F)(F)F)nc2C(N)=N1`, 46.8 nM. Under `NC1=N[C@@](c2cc(NC(=O)c3ccc(F)cn3)ccc2F)(C(F)F)Cn2ccnc21` stands over 30200 nM.
